Data taken from patent publication US11219608B2, “Triple combination formulation for treatment of chronic pain” (Northwestern University, priority 2017, dated 2022).
Entries after “also recorded” stand apart in the source; their conditions may differ.

How the values were obtained:
Npc1nmf164 mice [1] = assay: Efficacy in Npc1nmf164 mouse model of Niemann-Pick type C disease; format: in vivo
Source text: Animals—Npc1^nmf164 is a BALB/c strain carry a D1005G (A to G at cDNA bp 3163) mutation in the Npc1 gene 32. […] Homozygous mutants (Npc1^nmf164) along with wild-type littermates (Npc1^+/+), were generated in house by crossing heterozygous mutant (Npc1^+/nmf164) males and females and genotyped as previously described^10. Wild type Balb/c mice were procured from Envigo (Indianapolis, Ind., USA).
Drug injection and organ harvest—The Triple combination formulation (TCF) is a mixture of vorinostat (50 mg/kg), HPBCD (2000 mg/Kg)), PEG 400 (45%) and DMSO (5%). Vorinostat (50 mg/Kg) was made in 5% DMSO and 45% PEG. HPBCD was a 20% (w/v) solution and given dose of 2000 mg/Kg. […] To enable comparative studies with prior regiments, all mice were given two doses of HPBCD at P7 and P15. From P21 onwards, mice received either HPBCD alone or TCF, as indicated. Vo was also initiated at P21. Injections were administered weekly through the intraperitoneal (i.p) route (and the injection volume used was 10 ml/Kg body weight across all treatment groups). For lung histopathology, Npc1^nmf164 mice were analyzed at 100-109 days of age. Long-term safety was assessed for 8-10 months either in Npc^1+/nmf164 or commercially purchased wild type Balb/c mice.

Npc1nmf164 mice [2] = assay: Foamy macrophages in lungs of Npc1nmf164 mice (H&E); format: in vivo, mouse; conditions: Npc1nmf164 mice at 100 days of age, weekly i.p.
Procedure: H&E stained micrographs showing foamy macrophages (indicated by black arrows) at 100 days of age in the lung of Npc1^+/nmf164 (healthy control) and Npc1^nmf164 (^Npc) mutant mice treated as indicated. Foamy macrophages were abundant in untreated Npc mice. […] Images were taken with 40× objective lens and are representative of 4 mice in each group. Number of mice in each group=4. For quantitation, 10-15 random fields were analyzed per lung section. Untr, Untreated.*p=0.02, TCF vs HPBCD, two-tailed Mann-Whitney test.
Drug injection and organ harvest—The Triple combination formulation (TCF) is a mixture of vorinostat (50 mg/kg), HPBCD (2000 mg/Kg)), PEG 400 (45%) and DMSO (5%). Vorinostat (50 mg/Kg) was made in 5% DMSO and 45% PEG. HPBCD was a 20% (w/v) solution and given dose of 2000 mg/Kg. Detailed methodology on preparing drug solutions have been descried earlier^10. To enable comparative studies with prior regiments, all mice were given two doses of HPBCD at P7 and P15. From P21 onwards, mice received either HPBCD alone or TCF, as indicated. Vo was also initiated at P21. […] For lung histopathology, Npc1^nmf164 mice were analyzed at 100-109 days of age. Long-term safety was assessed for 8-10 months either in Npc^1+/nmf164 or commercially purchased wild type Balb/c mice. […]

[3] = literature, cited from earlier work
[4] = Quantification of Vo in lungs by mass spectrometry; format: in vivo, mouse; conditions: Npc1+/nmf164 mice
Procedure: Npc1^+/nmf164 injected i.p. with Vo or TCF. At indicated times, animals sacrificed, perfused with PBS and Vo concentration in lungs were determined by mass spectrometry. n=5. h, hour. *p=0.02, TCF vs Vo 0.5 h, and **p=0.014 TCF vs Vo, 1 h, two tailed Student's t test.
Quantification of Vo in lungs—Npc1^+/nmf164 mice (age 6-7 weeks) were given intraperitoneal injections of either Vo (50 mg/Kg in 45% PEG and 5% DMSO) or TCF (Vo 50 mg/Kg+HPBCD, 2000 mg/Kg+PEG, 45%+DMSO, 5%). At 30 min and 1 h post injection, mice were asphyxiated with CO2, blood was drawn by cardiac puncture and organs were perfused with 20 ml ice-cold PBS through the ventricle. Harvested lungs were cut into small pieces (4-6 mm2) and flash frozen in liquid nitrogen. The quantification of vorinostat was done by Metabolite Profiling Facility, Bindley Bioscience Center, Purdue University, Ind., USA. The detailed methods are as described earlier^10. Briefly, the tissue was homogenized using a Precelly bead homogenizer system utilizing ceramic CK 14 beads. 2 ng of deuterated internal standard (d5-Vorinostat, Toronto Research Chemicals, Ontario, Canada) was added to lung homogenate prior to liquid extraction with acetonitrile. Prior to analysis, samples were reconstituted in 100 μL of 50% water/50% acetonitrile. An Agilent 1200 Rapid Resolution liquid chromatography (HPLC) system coupled to an Agilent 6460 series triple quadrupole mass spectrometer (MS/MS) was used to analyze vorinostat. The data were obtained in positive electrospray ionization (ESI) mode and quantitated by monitoring the following transitions: for Vorinostat, 265→232 with a collision energy of 5 V and for d5-Vorinostat, 270→237 with collision energy of 5 V.

inflammatory pain model = conditions: intrathecal; cited from earlier work
SNI = conditions: intrathecal injection; cited from earlier work
animal pain models = conditions: systemically applied; cited from earlier work

CC(O)COC[C@H]1O[C@@H]2O[C@H]3[C@H](O)[C@@H](O)[C@@H](O[C@H]4[C@H](O)[C@@H](O)[C@@H](O[C@H]5[C@H](O)[C@@H](O)[C@@H](O[C@H]6[C@H](O)[C@@H](O)[C@@H](O[C@H]7[C@H](O)[C@@H](O)[C@@H](O[C@H]8[C@H](O)[C@@H](O)[C@@H](O[C@H]1[C@H](O)[C@H]2O)O[C@@H]8COCC(C)O)O[C@@H]7COCC(C)O)O[C@@H]6COCC(C)O)O[C@@H]5COCC(C)O)O[C@@H]4COCC(C)O)O[C@@H]3COCC(C)O (stereo partly drawn) [HPBCD, 2-hydroxypropyl-β-cyclodextrin]
benefit on Npc1nmf164 mouse survival (Npc1nmf164 mice [1]; 2×HPBCD compared to 1×HPBCD alone): no additional benefit
accumulation of foamy macrophages in the lungs (Npc1nmf164 mice [2]): abundant macrophage accumulation; also recorded: no effect
blood brain barrier crossing [3]: does not cross the blood brain barrier
distribution to lung ([3]; systemic delivery): excluded from lung

O=C(CCCCCCC(=O)Nc1ccccc1)NO [Vo, vorinostat]
benefit on Npc1nmf164 mouse survival (Npc1nmf164 mice [1]; Vo in PEG): no benefit
reduction of Vo lung concentration from 30 min to 60 min ([4]; i.p.): 65-70%
concentration at 30 min ([4]; mouse, lung, ip, 50 mg/Kg, 30 min post i.p. injection): 3200 ng/g
concentration at 60 min ([4]; mouse, lung, ip, 50 mg/Kg, 60 min post i.p. injection): 1000 ng/g
accumulation of foamy macrophages in the lungs (Npc1nmf164 mice [2]): abundant macrophage accumulation; also recorded: no effect
histone acetylation in the spinal cord dorsal horn (inflammatory pain model): enhanced histone acetylation
hyperalgesia (inflammatory pain model): reduced hyperalgesia

O=C(O)[C@H]1O[C@@H](Oc2cc3oc(-c4ccccc4)cc(=O)c3c(O)c2O)[C@H](O)[C@@H](O)[C@@H]1O [baicalin]
histone acetylation (SNI): reduces histone acetylation
pain behavior (SNI): reverses pain behavior

COc1cc(/C=C/C(=O)CC(=O)/C=C/c2ccc(O)c(OC)c2)ccc1O [curcumin]
analgesia (animal pain models): modest analgesia

O=C(/C=C/c1ccc(CN(CCO)CCc2c[nH]c3ccccc23)cc1)NO [dacinostat]
histone acetylation in the spinal cord dorsal horn (inflammatory pain model): enhanced histone acetylation
hyperalgesia (inflammatory pain model): reduced hyperalgesia

CC(/C=C/C(=O)NO)=C\[C@@H](C)C(=O)c1ccc(N(C)C)cc1 [trichostatin A]
histone acetylation in the spinal cord dorsal horn (inflammatory pain model): enhanced histone acetylation
hyperalgesia (inflammatory pain model): reduced hyperalgesia

CCCC(CCC)C(=O)O [valproic acid]
analgesia (animal pain models): modest analgesia
